Data as given in paper PMC9841524, “Structure-Based Rational Design of Small α-Helical Peptides with Broad-Spectrum Activity against Multidrug-Resistant Pathogens” (Journal of Medicinal Chemistry, 2022).
Where no end group is shown, it is not given here.

These substances were tested on S. aureus (ATCC 29213) (assay: MIC, standard microtiter dilution (CLSI)). Conditions: broth microdilution (CLSI), CAMHB, 10^6 CFU/mL, 37 °C, 24 h; highest MIC of three independent experiments in triplicate.
Type: cell-based
Procedure: (§1) Description of the characteristics and growth conditions of various bacterial strains used in the study are provided in the Supporting Information (Table S3). Antibacterial susceptibility testing was carried out using a standard microtiter dilution method recommended by the clinical and laboratory standard institute (CLSI) and measured as a minimum inhibitory concentration (MIC), the lowest peptide concentration that inhibited bacterial growth. Briefly, the overnight grown cultures in the recommended broth for each bacterial strain were diluted in cation-adjusted Mueller Hinton Broth (CAMHB) to give an inoculum of 10^6 colony-forming units (CFU)/mL. A 2-fold serially diluted test peptide solution (100 μL) was added to the microtiter plates. After adding bacterial suspension (100 μL), the plates were incubated at 37 °C for 24 h, and the MICs were determined. The same protocol was used to determine the MICs in the presence of salts and serum except using the media supplemented with various cationic salts (150 mM NaCl, 4.5 mM KCl, 6 mM NH4Cl, 1 mM MgCl2, and 2 mM CaCl2) or 25% FBS. The data was acquired from three independent assays performed in triplicate.
(§2) The bacterial strains employed in this study were obtained from the American Type Culture Collection (ATCC). Each strain was propagated as recommended by the ATCC, and each strain was stored as a frozen glycerol stock at -80°C. A bacterial colony was grown on the appropriate agar as indicated in Table S1 and was used to inoculate the appropriate broth. The culture was incubated at the appropriate conditions, as mentioned in Table S1. Following the incubation, the culture was diluted to an optical density 625 nm (OD625) of 0.1 in cation adjusted Mueller Hinton Broth (CAMHB), which is equivalent to 1 × 10^8 CFU/mL. The culture was further diluted to 1 × 10^6 CFU/mL, which was used to conduct the MIC determination assay. For the S. pneumoniae strains, CAMHB + 2.5% lysed horse blood was required for the assay. The strains with their […]
(§3) Table S3. Description of the characteristics and growth conditions of various bacterial strains

Substance | MIC, S. aureus (ATCC 29213) [µg/mL]
H-RAWRRWARAW-NH2 [4d] | > 100
H-RAWRRWWARA-NH2 [4g] | > 100
H-RWWRRWR-NH2 [1e] | 100
RAARRWARWWR-NH2 [5a] | 100
RAWRRWWRA-NH2 [3b] | > 100
RAWRRWWRAA-NH2 [4b] | > 100
RRWRRWW-NH2 [1d] | 100

Same assay, conditions: value in parentheses (μM); broth microdilution (CLSI), CAMHB, 37 °C, 24 h

Substance | MIC, S. aureus (ATCC 29213) [µM]
H-RAWRRWARAW-NH2 [4d] | > 70.74
H-RAWRRWWARA-NH2 [4g] | > 70.74
H-RWWRRWR-NH2 [1e] | 83.30
RAARRWARWWR-NH2 [5a] | 63.70
RAWRRWWRA-NH2 [3b] | > 74.48
RAWRRWWRAA-NH2 [4b] | > 70.74
RRWRRWW-NH2 [1d] | 83.30

What follows are substances tested on E. coli (ATCC 25922) (assay: not given). Conditions: broth microdilution (CLSI), CAMHB, 10^6 CFU/mL, 37 °C, 24 h; highest MIC of three independent experiments in triplicate.
Procedure: as §1, §2, §3

Substance | MIC, E. coli (ATCC 25922) [µg/mL]
H-RAWRRWARAW-NH2 [4d] | > 100
H-RAWRRWWARA-NH2 [4g] | > 100
H-RWWRRWR-NH2 [1e] | > 100
RAARRWARWWR-NH2 [5a] | > 100
RAWRRWWRA-NH2 [3b] | > 100
RAWRRWWRAA-NH2 [4b] | > 100
RRWRRWW-NH2 [1d] | > 100

Same assay, conditions: value in parentheses (μM); broth microdilution (CLSI), CAMHB, 37 °C, 24 h

Substance | MIC, E. coli (ATCC 25922) [µM]
H-RAWRRWARAW-NH2 [4d] | > 70.74
H-RAWRRWWARA-NH2 [4g] | > 70.74
H-RWWRRWR-NH2 [1e] | > 83.30
RAARRWARWWR-NH2 [5a] | > 63.70
RAWRRWWRA-NH2 [3b] | > 74.48
RAWRRWWRAA-NH2 [4b] | > 70.74
RRWRRWW-NH2 [1d] | > 83.30

These substances were tested on MRSA (ATCC BAA-1556) (assay: not given). Conditions: broth microdilution (CLSI), CAMHB, 10^6 CFU/mL, 37 °C, 24 h; highest MIC of three independent experiments in triplicate.
Procedure: as §1, §2, §3

Substance | MIC, MRSA (ATCC BAA-1556) [µg/mL]
H-RAWRRWARAW-NH2 [4d] | > 100
H-RAWRRWWARA-NH2 [4g] | > 100
H-RWWRRWR-NH2 [1e] | 100
RAARRWARWWR-NH2 [5a] | 100
RAWRRWWRA-NH2 [3b] | > 100
RAWRRWWRAA-NH2 [4b] | > 100
RRWRRWW-NH2 [1d] | 100

Same assay, conditions: value in parentheses (μM); broth microdilution (CLSI), CAMHB, 37 °C, 24 h

Substance | MIC, MRSA (ATCC BAA-1556) [µM]
H-RAWRRWARAW-NH2 [4d] | > 70.74
H-RAWRRWWARA-NH2 [4g] | > 70.74
H-RWWRRWR-NH2 [1e] | 83.30
RAARRWARWWR-NH2 [5a] | 63.70
RAWRRWWRA-NH2 [3b] | > 74.48
RAWRRWWRAA-NH2 [4b] | > 70.74
RRWRRWW-NH2 [1d] | 83.30

Each substance was assayed on P. aeruginosa (ATCC 27883) (assay: MIC, standard microtiter dilution (CLSI)). Conditions: broth microdilution (CLSI), CAMHB, 10^6 CFU/mL, 37 °C, 24 h; highest MIC of three independent experiments in triplicate.
Type: cell-based, Pseudomonas aeruginosa
Procedure: as §1, §2, §3

Substance | MIC, P. aeruginosa (ATCC 27883) [µg/mL]
H-RAWRRWARAW-NH2 [4d] | > 100
H-RAWRRWWARA-NH2 [4g] | > 100
H-RWWRRWR-NH2 [1e] | > 100
RAARRWARWWR-NH2 [5a] | > 100
RAWRRWWRA-NH2 [3b] | > 100
RAWRRWWRAA-NH2 [4b] | > 100
RRWRRWW-NH2 [1d] | > 100

Same assay, conditions: value in parentheses (μM); broth microdilution (CLSI), CAMHB, 37 °C, 24 h

Substance | MIC, P. aeruginosa (ATCC 27883) [µM]
H-RAWRRWARAW-NH2 [4d] | > 70.74
H-RAWRRWWARA-NH2 [4g] | > 70.74
H-RWWRRWR-NH2 [1e] | > 83.30
RAARRWARWWR-NH2 [5a] | > 63.70
RAWRRWWRA-NH2 [3b] | > 74.48
RAWRRWWRAA-NH2 [4b] | > 70.74
RRWRRWW-NH2 [1d] | > 83.30

These substances were tested on K. pneumoniae (ATCCBAA-1705) (assay: MIC, standard microtiter dilution (CLSI)). Conditions: broth microdilution (CLSI), CAMHB, 10^6 CFU/mL, 37 °C, 24 h; highest MIC of three independent experiments in triplicate.
Type: cell-based, Klebsiella pneumoniae
Procedure: as §1, §2, §3

Substance | MIC, K. pneumoniae (ATCCBAA-1705) [µg/mL]
H-RAWRRWARAW-NH2 [4d] | > 100
H-RAWRRWWARA-NH2 [4g] | > 100
H-RWWRRWR-NH2 [1e] | > 100
RAARRWARWWR-NH2 [5a] | > 100
RAWRRWWRA-NH2 [3b] | > 100
RAWRRWWRAA-NH2 [4b] | > 100
RRWRRWW-NH2 [1d] | > 100

Same assay, conditions: value in parentheses (μM); broth microdilution (CLSI), CAMHB, 37 °C, 24 h

Substance | MIC, K. pneumoniae (ATCCBAA-1705) [µM]
H-RAWRRWARAW-NH2 [4d] | > 70.74
H-RAWRRWWARA-NH2 [4g] | > 70.74
H-RWWRRWR-NH2 [1e] | > 83.30
RAARRWARWWR-NH2 [5a] | > 63.70
RAWRRWWRA-NH2 [3b] | > 74.48
RAWRRWWRAA-NH2 [4b] | > 70.74
RRWRRWW-NH2 [1d] | > 83.30

The substances below were run on human red blood cells (hRBCs) (assay: Hemolytic assay). Conditions: hRBC suspension 4% in PBS, 2 h, 37 °C, hemoglobin release at 567 nm; 1% Triton X-100 = 100%.
Type: cell-based
Procedure: The hemolytic activity of all peptides (1a–8d) was determined using hRBC. The assay was conducted by adding 75 μL of 2-fold serially diluted peptides to 75 μL of hRBC suspension (4% in PBS). The plates were incubated for 2 h at 37 °C without agitation. In order to determine the hemolysis at each tested concentration of peptides, the plate was centrifuged, and 100 μL of the supernatant was transferred to another 96-well plate to determine hemoglobin release spectrophotometrically at 567 nm. Percent hemolysis was calculated by the following formula [drawing 1] where A represents the absorbance of the peptide sample at 567 nm and A0 and At represent zero percent and 100% hemolysis determined in phosphate buffer saline and 1% Triton X-100, respectively.

Substance | HC50 (concentration at which 50% hemolysis was observed) [µg/mL]
H-RAWRRWARAW-NH2 [4d] | > 500
H-RAWRRWWARA-NH2 [4g] | > 500
H-RWWRRWR-NH2 [1e] | > 500
RAARRWARWWR-NH2 [5a] | > 500
RAWRRWWRA-NH2 [3b] | > 500
RAWRRWWRAA-NH2 [4b] | > 500
RRWRRWW-NH2 [1d] | > 500

Same assay, conditions: value in parentheses (μM); hRBC 4% in PBS, 2 h, 37 °C, 567 nm

Substance | HC50 (concentration at which 50% hemolysis was observed) [µM]
H-RAWRRWARAW-NH2 [4d] | > 353.69
H-RAWRRWWARA-NH2 [4g] | > 353.69
H-RWWRRWR-NH2 [1e] | > 416.52
RAARRWARWWR-NH2 [5a] | > 318.50
RAWRRWWRA-NH2 [3b] | > 372.42
RAWRRWWRAA-NH2 [4b] | > 353.69
RRWRRWW-NH2 [1d] | > 416.52
